Each structure is given as a SMILES string. Where only a bound is given, the exact number is not on record here.

The term Ki denotes the equilibrium dissociation constant of an inhibitor or competing ligand from its target. A higher Ki goes with a looser hold on the target.

This assay has as its target T1, Melatonin receptor type 1B (Gallus gallus, UniProt P51050).
T1 sequence (P51050 whole entry): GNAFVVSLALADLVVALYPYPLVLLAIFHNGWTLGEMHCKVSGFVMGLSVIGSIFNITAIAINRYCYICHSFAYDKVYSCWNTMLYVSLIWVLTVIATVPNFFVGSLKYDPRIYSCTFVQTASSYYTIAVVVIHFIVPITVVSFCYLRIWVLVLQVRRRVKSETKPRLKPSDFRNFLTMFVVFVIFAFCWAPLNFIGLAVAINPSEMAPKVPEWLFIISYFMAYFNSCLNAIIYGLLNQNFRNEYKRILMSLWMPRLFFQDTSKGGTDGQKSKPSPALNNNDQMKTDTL
Description: Binding affinity measured against Chicken brain melatonin receptor by using 2-[125I]iodomelatonin as radioligand.
With `COc1ccc2c(c1)C(CNC(C)=O)CC2` (configuration not stated), the Ki amounted to 77 nM.

As for `CCCC(=O)NCC1CCCc2ccc(OC)cc21` (configuration not stated), the affinity corresponds to a Ki of 0.45 nM.

On to `CCCC(=O)NCC1CCCCc2ccc(OC)cc21` (configuration not stated), for which the affinity corresponds to a Ki of 1 nM.

Take `CCC(=O)NCC1CCCCc2ccc(OC)cc21` (configuration not stated): the affinity, expressed as Ki, was 29 nM. This Ki is about 29-fold higher than that of the compound before.

In turn, `CCCC(=O)NCC1Cc2ccc(OC)cc21` (configuration not stated) registered a Ki of 49 nM.

On to `COc1ccc2c(c1)C(CNC(C)=O)CCC2` (configuration not stated), for which the Ki amounted to 4 nM.

On to `CCCC(=O)NCC1CCc2ccc(OC)cc21` (configuration not stated), for which the Ki is 7.6 nM. Compared with the last compound, the Ki is about 1.9-fold higher.

In turn, `CCC(=O)NCC1Cc2ccc(OC)cc21` (configuration not stated) came in with a Ki of 40 nM. Against the preceding compound, the Ki is about 5.3-fold higher.

With `COc1ccc2c(c1)C(CNC(C)=O)CCCC2` (configuration not stated), the Ki stood at 34 nM.

`COc1ccc2c(c1)C(CNC(C)=O)C2` (configuration not stated): the Ki turned out to be 224 nM. Against the preceding compound, the Ki is about 6.6-fold higher.

`COc1cccc2c1CC(NC(C)=O)CC2` (configuration not stated) registered a Ki of 161 nM.

`CCC(=O)NCC1CCc2ccc(OC)cc21` (racemic): affinity was put at a Ki of 16 nM.

As for `CCC(=O)NCC1CCCc2ccc(OC)cc21` (racemic), the affinity corresponds to a Ki of 0.53 nM.

Compound `CCC(=O)NCC1CCc2ccc(OC)cc21` (single isomer, unassigned; (+)) displayed a Ki of 3 nM.

In turn, `CCC(=O)NCC1CCCc2ccc(OC)cc21` (single isomer, unassigned; (+)) yielded an inhibition constant (Ki) of 0.45 nM.

Turning to `CCC(=O)NCC1CCc2ccc(OC)cc21` (single isomer, unassigned; (-)), affinity was put at a Ki of 456 nM. This Ki lies about 1000-fold higher than the previous one.

For the compound `CCC(=O)NCC1CCCc2ccc(OC)cc21` (single isomer, unassigned; (-)), the Ki was > 1000 nM.

The values are drawn from ChEMBL document CHEMBL1131354 (Bioorg Med Chem Lett, 1998).
